# Data: US4268510A, “1,3-Benzoxazine trichloromethyl derivatives, compositions and use” (Imperial Chemical Industries Limited, priority 1978, dated 1981)
# System: rumen metabolism
# Assay: not given
# Conditions: known prior art, administered to ruminant animals; cited from earlier work
row,Compound,effect on rumen metabolism (reducing methane production)
1,O=CC(Cl)(Cl)Cl [chloral],beneficial effect on rumen metabolism
2,NC(=O)C(Cl)(Cl)Cl [trichloroacetamide],beneficial effect on rumen metabolism

# System: methane production from ruminal fluid
# Assay: in vitro assay of inhibition of methane production from ruminal fluid
# Format: cell-based, steers (pooled rumen fluid)
# Conditions: at 1 μg./ml.; in vitro rumen fluid, 39° C., 15-16 hours
# Experimental: Rumen fluid is collected on a regular routine basis from two steers, which are fed on the same hay-plus-concentrate diet. Sampling time is standardised as far as possible, and the fluid from the two animals is pooled on a 50/50 basis. Large particulate matter is removed by filtering the pooled fluid through four layers of muslin cloth. The filtrate is then diluted in the ratio of one volume of filtrate to three volumes of an artificial rumen fluid (prepared as described by G. L. Bales et al., Journal of Dairy Science, 1976, volume 59, page 1850, but omitting acetic acid), and the pH of the mixture is adjusted to 6.9-7.0 with saturated aqueous sodium carbonate solution. Aliquots (50 ml.) of this mixture are dispensed into 100 ml. conical flasks containing dried ground hay (0.5 g.), and each flask is used to test a test compound at a particular concentration.
# The test compound is added to the conical flask as a solution in ethanol, the flask is flushed with carbon dioxide gas, stoppered with a suba-seal, and incubated at 39° C. for 15-16 hours. After one hour, a narrow bore needle is inserted through the suba-seal to relieve the gas pressure, and the needle is withdrawn 30 minutes before the incubation is ended. Fermentation is then stopped by placing the flask in ice, and after 15 minutes cooling, the gas over the liquid is analysed for methane by gas chromatography, and the concentration of the test compound required to produce a 50% reduction in methane production (ED50 in μg./ml.) is calculated.
# The test of methane inhibition described in Example 12 was repeated for various other compounds, to give the results shown below. The results are expressed as the percentage inhibition of methane production caused by 1 μg./ml. of a test compound, except for those compounds indicated by *, for which 3 μg./ml. was used.
row,Compound,inhibition at 1 µg/mL [%]
1,"O=C1NC(C(Cl)(Cl)Cl)Oc2ccc(C=NO)cc21 (stereo not shown) [drawing 8; R1=H; R3=HO . N:CH; R5=H, 3,4-dihydro-6-hydroxyiminomethyl-2-trichloromethyl-2-H-benzo[e]-[1,3]-oxazin-4-one]",41
2,"Nc1ccc2c(c1)C(=O)NC(C(Cl)(Cl)Cl)O2 (stereo not shown) [drawing 8; R1=H; R3=NH2; R5=H, 6-amino-3,4-dihydro-2-trichloromethyl-2H-benzo[e]-[1,3]-oxazin-4-one]",98
3,O=C1NC(C(Cl)(Cl)Cl)Oc2ccc(S(=O)(=O)O)cc21 (stereo not shown) [drawing 8; R1=H; R3=SO3 H; R5=H],11
4,"Cc1cccc2c1NC(C(Cl)(Cl)Cl)OC2 (stereo not shown) [drawing 9; R1=CH3; R3=H; R11=H, 1,2-dihydro-8-methyl-2-trichloromethyl-4H-benzo[d]-[1,3]-oxazine]",100
5,"CC(=O)Oc1ccc2c(c1)COC(C(Cl)(Cl)Cl)N2 (stereo not shown) [drawing 9; R1=H; R3=CH3 CO . O; R11=H, 6-acetoxy-1,2-dihydro-2-trichloromethyl-4H-benzo[d]-[1,3]-oxazine]",30
6,"COC(=O)c1ccc2c(c1)COC(C(Cl)(Cl)Cl)N2 (stereo not shown) [drawing 9; R1=H; R3=CH3 O . CO; R11=H, methyl 1,2-dihydro-2-trichloromethyl-4H-benzo[d]-[1,3]-oxazine-6-carboxylate]",100
7,"Clc1ccc2c(c1)COC(C(Cl)(Cl)Cl)N2 (stereo not shown) [drawing 9; R1=H; R3=Cl; R11=H, 6-chloro-1,2-dihydro-2-trichloromethyl-4H-benzo[d]-[1,3]-oxazine]",100
8,"CCOC(=O)C1OC(C(Cl)(Cl)Cl)Nc2ccccc21 (stereo not shown) [drawing 9; R1=H; R3=H; R11=C2 H5 O . CO, ethyl 1,2-dihydro-2-trichloromethyl-4H-benzo[d]-[1,3]oxazine-4-carboxylate]",24
9,"O=C(Nc1ccccc1)C1OC(C(Cl)(Cl)Cl)Nc2ccccc21 (stereo not shown) [drawing 9; R1=H; R3=H; R11=C6 H5 NH . CO, N-phenyl 1,2-dihydro-2-trichloromethyl-4H-benzo[d]-[1,3]-oxazine-4-carboxamide]",57
10,"COC(=O)C1OC(C(Cl)(Cl)Cl)Nc2ccccc21 (stereo not shown) [drawing 9; R1=H; R3=H; R11=CH3 O . CO, methyl 1,2-dihydro-2-trichloromethyl-4H-benzo[d]-[1,3]-oxazine-4-carboxylate]",46
11,"O=C(O)C1OC(C(Cl)(Cl)Cl)Nc2ccccc21 (stereo not shown) [drawing 9; R1=H; R3=H; R11=COOH, 1,2-dihydro-2-trichloromethyl-4H-benzo-[d]-[1,3]-oxazine-4-carboxylic acid]",14
12,"CC(C)OC(=O)C1OC(C(Cl)(Cl)Cl)Nc2ccccc21 (stereo not shown) [drawing 9; R1=H; R3=H; R11=i-C3 H7 O . CO, isopropyl 1,2-dihydro-2-trichloromethyl-4H-benzo[d]-[1,3]-oxazine-4-carboxylate]",37
13,"CCCOC(=O)C1OC(C(Cl)(Cl)Cl)Nc2ccccc21 (stereo not shown) [drawing 9; R1=H; R3=H; R11=n-C3 H7 O . CO, propyl 1,2-dihydro-2-trichloromethyl-4H-benzo[d]-[1,3]-oxazine-4-carboxylate]",31
14,"CCCCOC(=O)C1OC(C(Cl)(Cl)Cl)Nc2ccccc21 (stereo not shown) [drawing 9; R1=H; R3=H; R11=n-C4 H9 O . CO, butyl 1,2-dihydro-2-trichloromethyl-4H-benzo[d]-[1,3]-oxazine-4-carboxylate]",12
15,"CC(=O)N1C(=O)c2ccccc2N(C(C)=O)C1C(Cl)(Cl)Cl (stereo not shown) [drawing 10; R3=H; R5=CH3 CO; R6=CH3 CO, 1,3-diacetyl-1,2-dihydro-2-trichloromethylquinazolin-4-one]",90

# Same assay, conditions: at 3 μg./ml.; in vitro rumen fluid, 39° C., 15-16 hours; read-out: % Methane Inhibition (compounds indicated by *)
row,Compound,inhibition at 3 µg/mL [%]
1,"CCOC(=O)c1ccc2c(c1)C(=O)NC(C(Cl)(Cl)Cl)N2 (stereo not shown) [drawing 10; R3=C2 H5 O . CO; R5=H; R6=H, ethyl 1,2-dihydro-4-oxo-2-trichloromethylquinazoline-6-carboxylate]",71
2,"O=C(O)c1ccc2c(c1)C(=O)NC(C(Cl)(Cl)Cl)N2 (stereo not shown) [drawing 10; R3=COOH; R5=H; R6=H, 1,2-dihydro-4-oxo-2-trichloromethylquinazoline-6-carboxylic acid]",5
